Assays:
[1] = system: PC-12; assay: Hydroxyl radical scavenging activity in PC12 cell by survival assay; assay type: functional, cell-based, Homo sapiens; conditions: Rattus norvegicus
[2] = Partition coefficient, log P of the compound; assay type: physicochemical; conditions: octanol/water
[3] = Retention time, log K of the compound; assay type: ADME
[4] = system: PC-12; assay: Hydrogen peroxide radical scavenging activity in PC12 cell by survival assay; assay type: functional, cell-based, Homo sapiens; conditions: Rattus norvegicus
[5] = system: PC-12; assay: Nitric oxide radical scavenging activity in PC12 cells by survival assay; assay type: functional, cell-based, Homo sapiens; conditions: Rattus norvegicus

| Compound | EC50 ([1]; read-out: EC50) | EC50 ([1]; read-out: Log EC50 (converted)) | logP [2] | log K [3] | EC50 ([4]; read-out: EC50) | EC50 ([4]; read-out: Log EC50 (converted)) | EC50 ([5]; read-out: EC50) | EC50 ([5]; read-out: Log EC50 (converted)) |
| --- | --- | --- | --- | --- | --- | --- | --- | --- |
| CC1(C)N([O])C(c2ccccc2[N+](=O)[O-])=[N+]([O-])C1(C)C | 74.6 µM | 74.1 µM | 0.909 | 0.598 | 60.7 µM | 60.3 µM | 47.9 µM | 47.9 µM |
| COc1ccc(C2=[N+]([O-])C(C)(C)C(C)(C)N2[O])cc1 | 59.3 µM | 58.9 µM | 1.62 | 1.101 | 42.9 µM | 42.7 µM | 30.9 µM | 30.9 µM |
| CC1(C)N([O])C(c2cccc([N+](=O)[O-])c2)=[N+]([O-])C1(C)C | 63.5 µM | 63.1 µM | 1.64 | 1.157 | 62.1 µM | 61.7 µM | 87.1 µM | 87.1 µM |
| CC1(C)N([O])C(c2ccccc2O)=[N+]([O-])C1(C)C | 55.3 µM | 55 µM | 1.17 | 0.729 | 52.8 µM | 52.5 µM | 44.7 µM | 44.7 µM |
| CC1(C)N([O])C(c2ccccc2)=[N+]([O-])C1(C)C | 66.5 µM | 66.1 µM | 1.36 | 0.918 | 51.6 µM | 51.3 µM | 67.6 µM | 67.6 µM |
| CC1(C)N([O])C(c2ccco2)=[N+]([O-])C1(C)C | – | – | 0.615 | 0.405 | – | – | – | – |
| COc1ccc(C2=[N+]([O-])C(C)(C)C(C)(C)N2[O])cc1OC | 29.7 µM | 29.5 µM | 1.15 | 0.905 | 30.4 µM | 30.2 µM | 8.32 µM | 8.32 µM |
| CC1(C)N([O])C(c2ccc(Br)cc2)=[N+]([O-])C1(C)C | 60.7 µM | 60.3 µM | 2.46 | 1.713 | 55.3 µM | 55 µM | 46.8 µM | 46.8 µM |
| COc1cc(C2=[N+]([O-])C(C)(C)C(C)(C)N2[O])ccc1O | 42.9 µM | 42.7 µM | 1.14 | 0.558 | 32.6 µM | 32.4 µM | 25.7 µM | 25.7 µM |
| CC1(C)N([O])C(c2ccc(O)cc2)=[N+]([O-])C1(C)C | 56 µM | 56.2 µM | 0.619 | 0.483 | 48.2 µM | 47.9 µM | 39.8 µM | 39.8 µM |
| CN(C)c1ccc(C2=[N+]([O-])C(C)(C)C(C)(C)N2[O])cc1 | 31.1 µM | 30.9 µM | 2.02 | 1.328 | 29 µM | 28.8 µM | 9.12 µM | 9.12 µM |
| CC1(C)N([O])C(c2cccnc2)=[N+]([O-])C1(C)C | – | – | 0.512 | 0.337 | – | – | – | – |
| CC1(C)N([O])C(c2ccc([N+](=O)[O-])cc2)=[N+]([O-])C1(C)C | 167 µM | 166 µM | 1.68 | 1.245 | 108 µM | 107 µM | 115 µM | 115 µM |
| CC1(C)N([O])C(c2ccc(Cl)cc2Cl)=[N+]([O-])C1(C)C | 78.1 µM | 77.6 µM | 1.93 | 1.347 | 65 µM | 64.6 µM | 42.8 µM | 42.7 µM |
| CC1(C)N([O])C(c2ccc(Cl)cc2)=[N+]([O-])C1(C)C | 74.6 µM | 74.1 µM | 2.33 | 1.6 | 58.9 µM | 58.9 µM | 63.1 µM | 63.1 µM |
| COc1ccc(C2=[N+]([O-])C(C)(C)C(C)(C)N2[O])cc1O | 54.1 µM | 53.7 µM | 0.918 | 0.534 | 40.1 µM | 39.8 µM | 27.5 µM | 27.5 µM |
| COc1ccc(C2=[N+]([O-])C(C)(C)C(C)(C)N2[O])c(OC)c1 | 27.7 µM | 27.5 µM | 0.77 | 0.62 | 25.3 µM | 25.1 µM | 9.33 µM | 9.33 µM |
| CC1(C)N([O])C(c2ccc(OCC(=O)O)cc2)=[N+]([O-])C1(C)C | 101 µM | 100 µM | -0.518 | -0.372 | 74.6 µM | 74.1 µM | 91.2 µM | 91.2 µM |
| CC1(C)N([O])C(c2ccccc2F)=[N+]([O-])C1(C)C | 85.7 µM | 85.1 µM | 0.822 | 0.577 | 76.4 µM | 75.9 µM | 44.7 µM | 44.7 µM |
| Cc1ccc(C2=[N+]([O-])C(C)(C)C(C)(C)N2[O])cc1 | 65 µM | 64.6 µM | 1.9 | 1.309 | 38.3 µM | 38 µM | 33.1 µM | 33.1 µM |
| CC1(C)N([O])C(c2ccc3c(c2)OCO3)=[N+]([O-])C1(C)C | 47.1 µM | 46.8 µM | 1.51 | 1.039 | 29.7 µM | 29.5 µM | 19.5 µM | 19.5 µM |
| CC1(C)N([O])C(c2cccc(O)c2)=[N+]([O-])C1(C)C | 69.6 µM | 69.2 µM | 1.14 | 0.546 | 57.9 µM | 57.5 µM | 61.7 µM | 61.7 µM |

Reference: ChEMBL document CHEMBL1147197, “Studies on logP, retention time and QSAR of 2-substituted phenylnitronyl nitroxides as free radical scavengers” (Eur J Med Chem, 2007)
